What is called EC50 is the concentration needed to bring the measured effect to its halfway point. A low value points to higher potency in that assay.
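Note: CHO-K1 cells overexpressing SSTR4, reduction of forskolin-driven cAMP after 30 min compound exposure at room temperature, cAMP read by HTRF LANCE Ultra kit.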

Sequence of SSTR4 (P31391 whole entry): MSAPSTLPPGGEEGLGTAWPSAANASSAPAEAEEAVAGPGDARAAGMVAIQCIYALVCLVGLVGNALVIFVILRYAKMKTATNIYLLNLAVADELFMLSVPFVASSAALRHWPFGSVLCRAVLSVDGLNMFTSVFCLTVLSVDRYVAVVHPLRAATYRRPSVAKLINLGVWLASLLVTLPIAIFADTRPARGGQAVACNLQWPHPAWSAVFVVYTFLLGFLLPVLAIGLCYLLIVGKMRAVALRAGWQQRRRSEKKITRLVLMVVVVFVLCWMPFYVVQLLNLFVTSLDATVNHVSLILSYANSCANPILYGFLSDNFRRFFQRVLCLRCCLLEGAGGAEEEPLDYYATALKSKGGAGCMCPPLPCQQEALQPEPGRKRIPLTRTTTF

This test concerns the target SSTR4 (Homo sapiens, UniProt P31391). In words: cell-based.
Protocol: This cell-based assay measures the ability of compounds to inhibit forskolin stimulated cAMP in CHO-K1 cells overexpressing SSTR4. CHO-K1 cells overexpressing SSTR4 (CHO-SSTR4) are purchased from DiscoveRx (product code 95-0059C2). The CHO-SSTR4 cells are maintained in F12K media with 10% Fetal Bovine Serum (Hyclone), 1% Pen/Strep (Life Technologies), and 800 μg/mL G418 (Life Technologies). To perform the assay, 3000 cells are plated per well in white 384-well plate (Corning 3570) in 50 complete media and the cells are allowed to attach for 16 hours in a 37° C., 5% CO2 incubator. The next day, the culture media is removed from the cells and the cells are washed (added then removed) with Krebs Ringer Buffer (ZenBio, KRB-1000 mL). Test compounds are suspended in DMSO and diluted in stimulation buffer: Krebs Ringer Buffer plus 0.5% BSA (Roche), 300 μM IBMX (Sigma), and 350 nM forskolin (Sigma). The cells are incubated in 10 μL compound/stimulation buffer for 30 minutes at room temperature. Cellular cAMP levels are detected with a HTRF LANCE Ultra cAMP kit (Perkin Elmer, catalog number TRF0264).
The assay is performed in accordance with the manufacturer's instructions. Five μL of diluted Eu-W8044 labeled streptavidin (dilution: 1:50 in cAMP Detection Buffer) is added to each well. Then 5 μL of diluted biotin cAMP (dilution: 1:150 in cAMP Detection Buffer) is added to each well. The plates are covered and allowed to incubate for 60 minutes at room temperature on a shaker. HTRF (665 nm/615 nm) is read on a Perkin Elmer ENVISION plate reader. The pEC50 values are generated using Activity Base for Screening Data Management.
Compound `COc1cccc(Cc2nc(C#N)c(C)nc2N[C@@H]2CCN(C)C2)c1` [Example 98, (R)-6-(3-methoxybenzyl)-3-methyl-5-((1-methylpyrrolidin-3-yl)amino)pyrazine-2-carbonitrile] gave an EC50 of 77.6 nM.

In turn, `COc1cccc(Cc2nc3c(C)cccc3nc2NCCN2CCC2)c1` (single isomer, unassigned) [Example 5, N-(2-(azetidin-1-yl)ethyl)-3-(3-methoxybenzyl)-5-methylquinoxalin-2-amine] showed an EC50 of 331 nM.

`Fc1ccc(Cc2ncc(C(F)(F)F)nc2NCCN2CCCC2)cc1` [Example 93, 3-(4-fluorobenzyl)-N-(2-(pyrrolidin-1-yl)ethyl)-6-(trifluoromethyl)pyrazin-2-amine] gave an EC50 of 77.6 nM.

Regarding `CC(c1ccc(F)cc1)c1ncc(C(F)(F)F)nc1NCCN1CCCC1` (stereo not shown) [Example 94, 3-(1-(4-fluorophenyl)ethyl)-N-(2-(pyrrolidin-1-yl)ethyl)-6-(trifluoromethyl)pyrazin-2-amine], the EC50 is 151 nM.

With `Cc1cnc(-c2cnc(NCCN3CCCC3)c(C(C)c3ccc(F)cc3)n2)s1` (stereo not shown) [Example 127, 3-(1-(4-fluorophenyl)ethyl)-5-(5-methylthiazol-2-yl)-N-(2-(pyrrolidin-1-yl)ethyl)pyrazin-2-amine], the EC50 is 224 nM.

As for `C[C@@H](c1ccc(F)cc1)c1nc(C(N)=O)cnc1N[C@@H]1CCN(C)C1` (single isomer, unassigned) [Example 31], the response was half-maximal at 331 nM (EC50).

`C[C@H]1C[C@@H](Nc2nccnc2Cc2ccc(F)cc2)CCN1C` (single isomer, unassigned) [Example 114, N-(cis-1,2-dimethylpiperidin-4-yl)-3-(4-fluorobenzyl)pyrazin-2-amine] showed an EC50 of 575 nM.

`Cc1nc(N[C@@H]2CCN(C)C[C@H]2C)c(Cc2ccc(F)cc2)nc1C(=O)N(C)C` (racemic) [Example 47, 5-((trans-1,3-dimethylpiperidin-4-yl)amino)-6-(4-fluorobenzyl)-N,N,3-trimethylpyrazine-2-carboxamide] showed an EC50 of 47.9 nM.

Consider `CN1CCC1CNc1nccnc1Cc1ccc(F)cc1` (stereo not shown) [Example 110, 3-(4-fluorobenzyl)-N-((1-methylazetidin-2-yl)methyl)pyrazin-2-amine], for which a half-maximal response (EC50) required 2040 nM.

As to `CCc1cnc(Cc2ccccc2)c(NCCN2CCC2)n1` [Example 89, N-(2-(azetidin-1-yl)ethyl)-3-benzyl-6-ethylpyrazin-2-amine], a half-maximal effect (EC50) was put at 15.8 nM.

In turn, `Cc1cnc(-c2cnc(NCCN3CCCC3)c(C(C)c3ccc(F)cc3)n2)n1C` (stereo not shown) [Example 128, 5-(1,5-dimethyl-1H-imidazol-2-yl)-3-(1-(4-fluorophenyl)ethyl)-N-(2-(pyrrolidin-1-yl)ethyl)pyrazin-2-amine] gave an EC50 of 81.3 nM.

Consider `CN1CCCCC1CNc1nccnc1Cc1ccc(F)cc1` (stereo not shown) [Example 112, 3-(4-fluorobenzyl)-N-((1-methylpiperidin-2-yl)methyl)pyrazin-2-amine], for which the EC50 was 550 nM.

In turn, `Cc1nnc(Cc2ccc(F)cc2)c(NCCN2CCC2)n1` [Example 135, N-(2-(azetidin-1-yl)ethyl)-6-(4-fluorobenzyl)-3-methyl-1,2,4-triazin-5-amine] showed an EC50 of 129 nM.

The compound `Cc1nc(Cc2ccc(F)cc2)c(NC2CCN(C)CC2)nc1C` [Example 79, 3-(4-fluorobenzyl)-5,6-dimethyl-N-(1-methylpiperidin-4-yl)pyrazin-2-amine] showed an EC50 of 229 nM.

The compound `Fc1ccc(Cc2nccnc2N[C@@H]2CCNC[C@H]2F)cc1` (racemic) [Example 115, 3-(4-fluorobenzyl)-N-(trans-3-fluoropiperidin-4-yl)pyrazin-2-amine] gave an EC50 of 219 nM.

`CC1CN(C)CCC1Nc1nc(C(F)(F)F)cnc1Cc1ccc(F)cc1` (stereo not shown) [Example 92, N-(1,3-dimethylpiperidin-4-yl)-3-(4-fluorobenzyl)-6-(trifluoromethyl)pyrazin-2-amine] showed an EC50 of 115 nM.

On to `Cc1nc(NCCN2CCCC2)c(C(C)c2ccc(F)cc2)nc1C(=O)N[C@H]1C[C@H](F)C1` (stereo partly drawn) [Example 76, N-(trans-3-fluorocyclobutyl)-6-(1-(4-fluorophenyl)ethyl)-3-methyl-5-((2-(pyrrolidin-1-yl)ethyl)amino)pyrazine-2-carboxamide], for which the half-maximal effective concentration (EC50) was 7.76 nM.

`Cc1cnc(NCCN2CCCC2)c(C(C)c2ccc(F)cc2)n1` (stereo not shown) [Example 86, 3-(1-(4-fluorophenyl)ethyl)-5-methyl-N-(2-(pyrrolidin-1-yl)ethyl)pyrazin-2-amine] had an EC50 of 79.4 nM.

The compound `Cc1nnc([C@@H](C)c2ccc(F)cc2)c(N[C@@H]2CCN(C)C2)n1` (single isomer, unassigned) [Example 142] had an EC50 of 120 nM.

Compound `Cc1cccc(Cc2nc(C)c(C)nc2N[C@@H]2CCN(C)C2)c1` [Example 84, (R)-5,6-dimethyl-3-(3-methylbenzyl)-N-(1-methylpyrrolidin-3-yl)pyrazin-2-amine] gave an EC50 of 45.7 nM.

Consider `Cc1nnc([C@@H](C)c2ccc(F)cc2)c(N[C@H]2CCN(C)C2)n1` (single isomer, unassigned) [Example 147], for which the EC50 was 224 nM.

Consider `CC(c1ccc(F)cc1)c1nccnc1NCCN1CCC(F)C1` (stereo not shown) [Example 117, 3-(1-(4-fluorophenyl)ethyl)-N-(2-(3-fluoropyrrolidin-1-yl)ethyl)pyrazin-2-amine], for which the EC50 was 224 nM.

In the case of `CN(C)C(=O)c1cnc(NCCN2CCCC2)c(Cc2ccc(F)cc2)c1` [Example 99, 5-(4-fluorobenzyl)-N,N-dimethyl-6-((2-(pyrrolidin-1-yl)ethyl)amino)nicotinamide], a half-maximal effect (EC50) was put at 107 nM.

`C[C@@H](c1ccc(F)cc1)c1nc(C(N)=O)cnc1NCCN1CCCC1` (single isomer, unassigned) [Example 20]: the response was half-maximal at 708 nM (EC50).

The compound `Cc1nnc(Cc2ccc(F)cc2)c(NC2CCN(C)CC2)n1` [Example 137, 6-(4-fluorobenzyl)-3-methyl-N-(1-methylpiperidin-4-yl)-1,2,4-triazin-5-amine] gave an EC50 of 141 nM.

In the case of `C[C@@H](c1ccc(F)cc1)c1nccnc1NCCN1CCCC1` (single isomer, unassigned) [Example 122], a half-maximal response (EC50) required 575 nM.

Regarding `Cc1cccc(Cc2cc3cccc(C)c3nc2NCCN2CCCC2)c1` [Example 7, 8-methyl-3-(3-methylbenzyl)-N-(2-(pyrrolidin-1-yl)ethyl)quinolin-2-amine], the EC50 is 661 nM.

The compound `CC1CN(C)CCC1Nc1ncc(C(N)=O)cc1Cc1ccc(F)cc1` (mixture of isomers) [Example 102, 6-((1,3-dimethylpiperidin-4-yl)amino)-5-(4-fluorobenzyl)nicotinamide] had an EC50 of 398 nM.

`Cc1nnc([C@H](C)c2ccccc2)c(N[C@H]2CCN(C)C2)n1` (single isomer, unassigned) [Example 151] gave an EC50 of 316 nM.

Turning to `CC[C@@H]1CN(C)CC[C@H]1Nc1ncc(C(F)(F)F)nc1Cc1ccc(F)cc1` (racemic) [Example 95, N-(trans-3-ethyl-1-methylpiperidin-4-yl)-3-(4-fluorobenzyl)-5-(trifluoromethyl)pyrazin-2-amine], the EC50 is 741 nM.

As to `Cc1cccc2nc(NCCN3CCC3)c(Cc3ccccc3)nc12` (single isomer, unassigned) [Example 3, N-(2-(azetidin-1-yl)ethyl)-3-benzyl-5-methylquinoxalin-2-amine], the response was half-maximal at 457 nM (EC50).

On to `Cc1nnc([C@@H](C)c2ccccc2)c(N[C@@H]2CCN(C)C2)n1` (single isomer, unassigned) [Example 150], for which the EC50 was 363 nM.

`CC[C@@H]1CN(C)CC[C@H]1Nc1ncc(C(=O)NC)nc1Cc1ccc(F)cc1` (racemic) [Example 36, 5-((trans-3-ethyl-1-methylpiperidin-4-yl)amino)-6-(4-fluorobenzyl)-N-methylpyrazine-2-carboxamide]: it took 224 nM to reach a half-maximal effect (EC50).

`Cc1nc(NCCN2CCCC2)c(C(C)c2ccc(F)cc2)nc1C(=O)NC1CCCC1` (stereo not shown) [Example 57, N-cyclopentyl-6-(1-(4-fluorophenyl)ethyl)-3-methyl-5-((2-(pyrrolidin-1-yl)ethyl)amino)pyrazine-2-carboxamide] had an EC50 of 40.7 nM.

Compound `CNC(=O)c1cnc(NCCN2CCCC2)c(Cc2ccc(F)cc2)c1` [Example 101] showed an EC50 of 166 nM.

As for `Cc1nc(Cc2ccc(F)cc2)c(NCCN2CCCC2)nc1C` [Example 80, 3-(4-fluorobenzyl)-5,6-dimethyl-N-(2-(pyrrolidin-1-yl)ethyl)pyrazin-2-amine], the EC50 was 19.1 nM.

In turn, `Cc1nc(Cc2ccc(F)cc2)c(N[C@@H]2CCN(C)C2)nc1C` [Example 81, (R)-3-(4-fluorobenzyl)-5,6-dimethyl-N-(1-methylpyrrolidin-3-yl)pyrazin-2-amine] gave an EC50 of 240 nM.

Take `CNC(=O)c1cnc(N[C@@H]2CCN(C)C2)c([C@H](C)c2ccc(F)cc2)n1` (single isomer, unassigned) [Example 35]: it took 1200 nM to reach a half-maximal effect (EC50).

With `Cc1cccc(Cc2nc(C)c(C)nc2NCCN2CCCC2)c1` [Example 83, 5,6-dimethyl-3-(3-methylbenzyl)-N-(2-(pyrrolidin-1-yl)ethyl)pyrazin-2-amine], a half-maximal response (EC50) required 7.76 nM.

On to `C[C@H]1C[C@H](Nc2nccnc2Cc2ccc(F)cc2)CCN1C` (single isomer, unassigned) [Example 113, N-(trans-1,2-dimethylpiperidin-4-yl)-3-(4-fluorobenzyl)pyrazin-2-amine], for which the EC50 was 813 nM.

`Cc1cccc(Cc2nc(C#N)c(C)nc2N[C@@H]2CCN(C)C2)c1` [Example 97, (R)-3-methyl-6-(3-methylbenzyl)-5-((1-methylpyrrolidin-3-yl)amino)pyrazine-2-carbonitrile] had an EC50 of 36.3 nM.

For the compound `NC(=O)c1cnc(NCCN2CCCC2)c(Cc2ccc(F)cc2)c1` [Example 100, 5-(4-fluorobenzyl)-6-((2-(pyrrolidin-1-yl)ethyl)amino)nicotinamide], the response was half-maximal at 95.5 nM (EC50).

`c1ccc(Cc2nc3ccccc3nc2NCCN2CCCC2)cc1` [Example 1, 3-benzyl-N-(2-(pyrrolidin-1-yl)ethyl)quinoxalin-2-amine] had an EC50 of 166 nM.

For the origin of these results see US12428403B2, “N-(heterocyclyl and heterocyclylalkyl)-3-benzylpyridin-2-amine derivatives as SSTR4 agonists” (Takeda Pharmaceutical Company Limited, priority 2020, dated 2025).
